Patent US12201602B2, “Medicament comprising combination of sepetaprost and Rho-associated coiled-coil containing protein kinase inhibitor” (SANTEN PHARMACEUTICAL CO., LTD., priority 2017, dated 2025)

Assays:
normal pressure monkeys [1] = test: Intraocular pressure lowering effect of sepetaprost and netarsudil, alone and concomitantly (Example 2); assay type: in vivo, cynomolgus monkey; details: eye drop 20 μL/eye, sepetaprost 0.0003% (w/v), netarsudil 0.01% (w/v), average of 8 monkeys
Experimental: In order to examine usefulness of the combination of sepetaprost and a Rho-associated coiled-coil containing protein kinase inhibitor(s), the effect of lowering an intraocular pressure when sepetaprost and netarsudil which is a Rho-associated coiled-coil containing protein kinase inhibitor were administered concomitantly to experimental animals (normal pressure monkeys) was investigated. Sepetaprost was dissolved in purified water containing a solubilizing agent, and then, a sepetaprost solution with a desired concentration was prepared by using a commonly used method. […] An effect of lowering an intraocular pressure when sepetaprost and netarsudil were administered concomitantly was investigated. As a comparative subject, an effect of lowering an intraocular pressure when sepetaprost or netarsudil was administered alone was also investigated. As a control, the base of the sepetaprost solution and the base of the netarsudil solution were administered. […] Also, the intraocular pressure was measured each three times, and the average value was calculated. With respect to the changed value of the intraocular pressure (mmHg), a difference from the value of the intraocular pressure before administration at each measurement time point was calculated. […] The test was carried out in the same manner as the above-mentioned concomitant administration test except for changing the netarsudil solution to the base of the netarsudil solution. The test was carried out in the same manner as the above-mentioned concomitant administration test except for changing the sepetaprost solution to the base of the sepetaprost solution. The test was carried out in the same manner as the above-mentioned concomitant administration test except for changing the sepetaprost solution to the base of the sepetaprost solution and changing the netarsudil solution to the base of the netarsudil solution. The changes in the lowering of the intraocular pressure with the lapse of time for each administered group are shown in FIG. 2 and Table 2. The change in the intraocular pressure values are shown by an average value ±SEM of the difference from the value (0 hour) before administration of eight monkeys in each group with regard to each measurement time point of each individual. Comparison of the control group with the sepetaprost group, the netarsudil group, or the sepetaprost/netarsudil concomitant use group, and comparison of the sepetaprost/netarsudil concomitant use group with the sepetaprost group or the netarsudil group was carried out by, after carrying out the Bartlett test, in the case where dispersion is uniform, using the Dunnett test, or in the case of ununiform, using the Steel test. The significance level with respect to the control group was shown as *: p<0.05 and **: p<0.01 in the Steel test, and *: […] in the Dunnett test.

normal pressure monkeys [2] = test: Intraocular pressure lowering effect of sepetaprost and ripasudil, alone and concomitantly (Example 1); assay type: in vivo, cynomolgus monkey; details: eye drop 20 μL/eye, sepetaprost 0.0003% (w/v), ripasudil 0.4% (w/v), average of 8 monkeys
Experimental: In order to examine usefulness of the combination of sepetaprost and a Rho-associated coiled-coil containing protein kinase inhibitor(s), the effect of lowering an intraocular pressure when sepetaprost and ripasudil which is a Rho-associated coiled-coil containing protein kinase inhibitor were administered concomitantly to experimental animals (normal pressure monkeys) was investigated. Sepetaprost was dissolved in purified water containing a solubilizing agent, and then, a sepetaprost solution with a desired concentration was prepared by using a commonly used method. Commercially available ripasudil eye drop (Kowa Company, Ltd., […] (Registered Trademark) eye drops 0.4%) was used as it was. An effect of lowering an intraocular pressure when sepetaprost and ripasudil were administered concomitantly was investigated. As a comparative subject, an effect of lowering an intraocular pressure when sepetaprost or ripasudil was administered alone was also investigated. As a control, the base of the sepetaprost solution and physiological saline solution were administered. • Sepetaprost solution: 0.0003% (w/v) sepetaprost solution (volume of eye dropped: 20 μL/eye) • Ripasudil solution: 0.4% (w/v) ripasudil solution (trade name: […] Also, the intraocular pressure was measured each three times, and the average value was calculated. With respect to the changed value of the intraocular pressure (mmHg), a difference from the value of the intraocular pressure before administration at each measurement time point was calculated. […] The test was carried out in the same manner as the above-mentioned concomitant administration test except for changing the ripasudil solution to the physiological saline solution. The test was carried out in the same manner as the above-mentioned concomitant administration test except for changing the sepetaprost solution to the base of the sepetaprost solution. The test was carried out in the same manner as the above-mentioned concomitant administration test except for changing the sepetaprost solution to the base of the sepetaprost solution and changing the ripasudil solution to the physiological saline solution. The changes in the lowering of the intraocular pressure with the lapse of time for each administered group are shown in FIG. 1 and Table 1. The changes in the intraocular pressure values are shown by an average value ±SEM of the difference from the value (0 hour) before administration of eight monkeys in each group with regard to each measurement time point of each individual. Comparison of the control group with the sepetaprost group, the ripasudil group, or the sepetaprost/ripasudil concomitant use group, and comparison of the sepetaprost/ripasudil concomitant use group with the sepetaprost group or the ripasudil group was carried out by, after carrying out the Bartlett test, in the case where dispersion is uniform, using the Dunnett test, or in the case of ununiform, using the Steel test. The significance level with respect to the control group was shown as ##: p<0.01 in the Dunnett test, and *: p<0.05 and **: p<0.01 in the Steel test.

| Structure (SMILES) | changed value of the intraocular pressure (difference from value before administration) (normal pressure monkeys [1]; 2 hours after dropping) [mmHg] | changed value of the intraocular pressure (difference from value before administration) (normal pressure monkeys [1]; 4 hours after dropping) [mmHg] | changed value of the intraocular pressure (difference from value before administration) (normal pressure monkeys [1]; 6 hours after dropping) [mmHg] | changed value of the intraocular pressure (difference from value before administration) (normal pressure monkeys [1]; 8 hours after dropping) [mmHg] | changed value of the intraocular pressure (difference from value before administration) (normal pressure monkeys [1]; 24 hours after dropping) [mmHg] | changed value of the intraocular pressure (difference from value before administration) (normal pressure monkeys [2]; 2 hours after dropping) [mmHg] | changed value of the intraocular pressure (difference from value before administration) (normal pressure monkeys [2]; 4 hours after dropping) [mmHg] | changed value of the intraocular pressure (difference from value before administration) (normal pressure monkeys [2]; 6 hours after dropping) [mmHg] | changed value of the intraocular pressure (difference from value before administration) (normal pressure monkeys [2]; 8 hours after dropping) [mmHg] | changed value of the intraocular pressure (difference from value before administration) (normal pressure monkeys [2]; 24 hours after dropping) [mmHg] |
| --- | --- | --- | --- | --- | --- | --- | --- | --- | --- | --- |
| Cc1ccc(C(=O)OCc2ccc([C@@H](CN)C(=O)Nc3ccc4cnccc4c3)cc2)c(C)c1 [Netarsudil, [4-[(1S)-1-(aminomethyl)-2-(isoquinolin-6-ylamino)-2-oxoethyl]phenyl]methyl 2,4-dimethylbenzoate] | −0.4 | −2.2 | −2.1 | −2.3 | −0.6 | – | – | – | – | – |
| C[C@H]1CNCCCN1S(=O)(=O)c1cccc2cncc(F)c12 [Ripasudil, (S)-(−)-1-(4-fluoro-5-isoquinolinesulfonyl)-2-methyl-1,4-homopiperazine] | – | – | – | – | – | −2.4 | −1.8 | −1.6 | −1.5 | −0.4 |
| CC(C)OC(=O)CCC[C@H]1CC[C@@H]2[C@@H](/C=C/[C@@H](O)COc3cc(F)ccc3F)[C@H](O)C[C@@H]2OC1 [Sepetaprost, 2-propanyl 4-{(3S, 5aR, 6R, 7R, 8aS)-6-[(1E, 3R)-4-(2,5-difluorophenoxy)-3-hydroxy-1-buten-1-yl]-7-hydroxyoctahydro-2H-cyclopenta[b]oxepin-3-yl}butanoate] | −0.2 | −1.6 | −2.2 | −2.0 | −1.1 | −0.1 | −0.9 | −1.8 | −1.9 | −0.6 |
